Source: patent US20080200470A1, “Diaza- or Thiazadione Derivatives With Neuroprotective Activity” (Schwartz Pharma S.L, priority 2005, published 2008)
Structures can show the parent of a compound that is named as a salt. Marks after values point to notes of the source that are not given here.

Columns and labels:
[1] = tested on: primary cultures of rat hippocampus; assay: Neurotoxicity due to deprivation of trophic factors (serum deprivation), MTT; assay type: cell-based; settings: serum-free medium 48 hours
Experimental: (§1) The capacity to prevent neurotoxicity induced by hypoxia/hypoglycaemia in primary cultures of rat hippocampus (E18) was determined. […] After centrifuging at 700 g, the pellet was mechanically redispersed. The density of the cellular suspension was measured and aliquots were taken to culture on Petri dishes, previously coated with poly-lysine, using the same medium. […] Before the hypoxia, the compounds to be studied were added at variable times and concentrations.
In this case, an Eagle medium (DMEM) modified with 10% of calf serum was initially used and, after 10 days, the cultures were transferred to the DMEM culture deprived of calf serum.

[2] = tested on: cerebral infarction after intraluminal occlusion of the middle cerebral artery (MCA) in rats; assay: Focal ischemic model in rats, occlusion of the middle cerebral artery; assay type: in vivo; settings: rat, 40 μg/kg intravenously, 24 hours after ischemic damage
Experimental: The rats were anaesthetised with halotan, maintaining their temperature at 37.5° C. using an electric blanket connected to a rectal probe and cannulating the left femoral artery to monitor blood pressure. The right carotid artery was exposed, occluding the extra-cranial branches, and a blunt nylon filament was introduced through the external carotid until reaching the level when the middle cerebral artery (MCA) branches.
The selected compounds were administered intravenously. 24 Hours after the ischemic damage, the rats were anaesthetised with ether, they were perfused with saline solution and were then decapitated, extracting the brains that were cut into 1.5 mm coronal slices. The slices were then incubated in 4% triphenyltetrazolium chloride (TTC), which reacts with the intact mitochondrial enzymes producing a red colour which contrasts with the paleness of the infracted area, permitting it to be viewed, subsequently maintaining it in 10% formalin. The volume of cerebral infarction (mm^3) was calculated by measuring, in an image analyser, the affected area in the areas of cerebral cortex irrigated by the MCA and in the striatum and multiplying the average value obtained in each slice by the thickness thereof.

[3] = tested on: primary cultures of rat hippocampus; assay: Neurotoxicity induced by hypoxia/hypoglycaemia (oxygen-glucose deprivation), MTT; assay type: cell-based; settings: glucose-free medium, 2 hours 95% N2/5% CO2, MTT
Experimental: as §1

Compound	melting point [°C]	other results
O=C1C2CCCN2C(=O)N1CCCCNCCOc1ccccc1Br (stereo not shown) (as salt: salt) [o, 2-[4-[2-(o-Bromophenoxy)ethylamino]butyl]-1,3-dioxoperhydropyrrolo[1,2-c]imidazole]	98 to 99	–
CCOc1ccccc1OCCNCCCCCCCCN1C(=O)CSC1=O (as salt: salt) [hh, 3-[8-[2-(o-Ethoxyphenoxy)ethylamino]octyl]-2,4-dioxothiazolidine]	105 to 108	–
O=C1C2CCCN2C(=O)N1CCCCNCCOc1cccc(Br)c1 (stereo not shown) (as salt: salt)	140 to 143	–
O=C1c2ccccc2S(=O)(=O)N1CCCCNC[C@H]1CCc2ccccc2O1 [(−)-BAYx3702]	–	Protection (%) Serum Deprivation [1]: 31.0 ± 2.9%; Infarcted Volumen Cortical [2]: 271.2 ± 54.7* mm^3; Infarcted Volumen Subcortical [2]: 105.5 ± 9.3 mm^3; Infarcted Volumen Total [2]: 376.7 ± 57.8* mm^3; Protection (%) Oxygen-glucose deprivation [3]: 77.5 ± 8.6%
O=C1C2CCCN2C(=O)N1CCCCNCc1ccc2ccccc2n1 (stereo not shown)	125 to 126	–
CCc1ccccc1OCCNCCCCN1C(=O)C2CCCN2C1=O (stereo not shown) (as salt: salt)	115 to 118	–
CCOc1ccccc1OCCNCCCCN1C(=O)CSC1=O (as salt: salt) [ff, 3-[4-[2-(o-Ethoxyphenoxy)ethylamino]butyl]-2,4-dioxothiazolidine]	70 to 74	–
O=C1C2CCCCN2C(=O)N1CCCCCCNCc1ccc2ccccc2n1 (stereo not shown) (as salt: salt) [ll, 2-[6-[(2-Quinolyl)methylamino]hexyl]-1,3-dioxoperhydroimidazo[1,5-a]pyridine]	176 to 188	–
O=C1C2CCCCN2C(=O)N1CCCCNCc1ccc2ccccc2n1 (stereo not shown) (as salt: salt) [kk, 2-[4-[(2-Quinolyl)methylamino]butyl]-1,3-dioxoperhydroimidazo[1,5-a]pyridine]	206 to 208	–
(±)-BAYx3702	–	Protection (%) Serum Deprivation [1]: 25.9 ± 2.5%
CCCN(CCC)C1CCc2cccc(O)c2C1 (stereo not shown) [Compound 8-OH-DPAT, 8-OH-DPAT]	–	Protection (%) Serum Deprivation [1]: 44.0 ± 1.4%; Protection (%) Oxygen-glucose deprivation [3]: 54.0 ± 3.5%
